What follows are compounds tested against T1, human nAChRα6-α3 chimera, in addition to β2 and β3^V273S subunits (Homo sapiens, UniProt P32297+Q15825) (assay: fluorescence-based calcium assay: inhibition of nicotine stimulated nAChRα6 activity (FLIPR)). Conditions: HEK cell line stably expressing the receptor; 10 min pre-incubation, nicotine EC80; 10-point curve, duplicate wells; read-out: IC50.
T1 construct: expressed in transfected cells
Description: The ability of the test compounds to inhibit nicotine stimulated nAChRα6 activity was determined in a fluorescence-based calcium assay. Compound activity was determined using a HEK cell line stably expressing a human nAChRα6-α3 chimera, in addition to β2 and β3^V273S subunits (as in Capelli et al, Br J Pharmacol 163(2): 313-29 2011). In this cell line, nicotine stimulated an increase in intracellular calcium concentration, measured as an increase in fluorescence when cells were incubated with a calcium sensitive dye. Test compounds were pre-incubated with cells prior to nicotine stimulation to detect any reduction in the magnitude of the nicotine response.
The day prior to the assay, compounds were serially diluted in DMSO (200× final assay concentration (FAC)), in 384-well plates which were then stored in the dark at room temperature (RT) until use. Cells were seeded at 20 k/well in black, poly-D-lysine coated, clear bottom 384-well plates and incubated for 4 hours at 37° C., followed by overnight incubation at 30° C. The following day, the DMSO compound plate was diluted 1:20 (10×FAC) in assay buffer (HEPES buffered saline solution with 10 mM HEPES, 0.1% bovine serum albumin, 1 mM probenecid). A nicotine solution was prepared in assay buffer (7×FAC) and dispensed into a 384-well plate. The growth media was removed from the cell plate, replaced with 53 μl calcium dye/well (Calcium 5; Molecular Devices) and the plate incubated at 30° C. for 45 minutes. Test compounds were then added to the cells (7 μl of 10×FAC) and incubated for 10 minutes, after which nicotine EC80 (10 μl of 7×FAC) was added and changes in fluorescence measured using a FLIPR plate reader (Molecular Devices).
Compound activity was examined using a 10-point, half-log concentration-response range and each concentration was tested in duplicate wells.

T1 sequence (Q05901 25-458 V273S): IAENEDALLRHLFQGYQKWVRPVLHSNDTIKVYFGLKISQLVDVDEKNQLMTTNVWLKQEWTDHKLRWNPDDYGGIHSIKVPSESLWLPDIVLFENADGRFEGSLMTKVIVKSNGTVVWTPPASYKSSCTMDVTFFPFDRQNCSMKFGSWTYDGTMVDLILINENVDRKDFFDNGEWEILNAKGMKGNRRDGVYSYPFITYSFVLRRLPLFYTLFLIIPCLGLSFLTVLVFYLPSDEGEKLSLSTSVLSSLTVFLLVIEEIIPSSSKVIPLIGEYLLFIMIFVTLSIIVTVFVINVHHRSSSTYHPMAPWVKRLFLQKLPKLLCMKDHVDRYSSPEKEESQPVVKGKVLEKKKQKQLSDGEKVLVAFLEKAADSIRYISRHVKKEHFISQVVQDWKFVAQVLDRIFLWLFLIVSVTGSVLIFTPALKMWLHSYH
T1 sequence (P17787 26-502, stated change not applied, further chain): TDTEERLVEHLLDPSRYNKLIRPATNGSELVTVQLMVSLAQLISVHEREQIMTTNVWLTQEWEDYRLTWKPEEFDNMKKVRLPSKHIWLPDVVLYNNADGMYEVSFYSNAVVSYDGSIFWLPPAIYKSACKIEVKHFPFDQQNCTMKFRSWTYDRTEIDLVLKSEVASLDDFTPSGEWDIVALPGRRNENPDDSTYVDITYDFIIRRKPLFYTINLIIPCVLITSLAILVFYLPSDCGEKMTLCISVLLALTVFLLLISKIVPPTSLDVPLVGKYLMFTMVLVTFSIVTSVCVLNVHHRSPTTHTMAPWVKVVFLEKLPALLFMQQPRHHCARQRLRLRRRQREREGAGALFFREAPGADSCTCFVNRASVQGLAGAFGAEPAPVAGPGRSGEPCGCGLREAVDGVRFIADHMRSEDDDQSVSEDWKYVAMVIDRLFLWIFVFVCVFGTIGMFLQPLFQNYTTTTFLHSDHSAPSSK
T1 sequence (Q15825+P32297 fused with the stated changes): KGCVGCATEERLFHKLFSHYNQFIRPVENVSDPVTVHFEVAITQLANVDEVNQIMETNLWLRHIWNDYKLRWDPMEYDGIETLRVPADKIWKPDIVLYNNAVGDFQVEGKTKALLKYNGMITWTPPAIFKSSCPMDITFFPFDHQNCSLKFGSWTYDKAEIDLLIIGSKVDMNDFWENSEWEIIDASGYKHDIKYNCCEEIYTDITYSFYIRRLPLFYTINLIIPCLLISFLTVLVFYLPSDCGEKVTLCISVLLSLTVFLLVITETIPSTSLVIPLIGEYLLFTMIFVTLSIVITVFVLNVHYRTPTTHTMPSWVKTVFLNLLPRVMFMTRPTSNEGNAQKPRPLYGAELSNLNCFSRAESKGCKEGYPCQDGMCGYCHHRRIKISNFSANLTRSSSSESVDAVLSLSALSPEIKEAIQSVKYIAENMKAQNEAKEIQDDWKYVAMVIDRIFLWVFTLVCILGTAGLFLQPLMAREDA

SMILES | IC50 [nM]
COc1ccc(-c2nnc(NC3CCCN(C)C3)nc2C)c(F)c1 (single isomer, unassigned) [Example 69a, 6-(2-fluoro-4-methoxyphenyl)-5-methyl-N-(1-methylpiperidin-3-yl)-1,2,4-triazin-3-amine] | 436
COc1ccc(-c2nnc(NC3CCCN(C)C3)nc2C)c(F)c1 (single isomer, unassigned) [Example 69b, 6-(2-fluoro-4-methoxyphenyl)-5-methyl-N-(1-methylpiperidin-3-yl)-1,2,4-triazin-3-amine] | 309
Cc1nc(NCC2CCCN2C)nnc1-c1ccc(F)cc1F (single isomer, unassigned) [Example 74a, 6-(2,4-difluorophenyl)-5-methyl-N-((1-methylpyrrolidin-2-yl)methyl)-1,2,4-triazin-3-amine] | 693
Cc1nc(NCC2CCCN2C)nnc1-c1ccc(F)cc1F (single isomer, unassigned) [Example 74b, 6-(2,4-difluorophenyl)-5-methyl-N-((1-methylpyrrolidin-2-yl)methyl)-1,2,4-triazin-3-amine] | 1470
COc1ccc(-c2nnc(NC3CCCN(C(C)C)C3)nc2C)c(F)c1 (single isomer, unassigned) [Example 76a, 6-(2-fluoro-4-methoxyphenyl)-N-(1-isopropylpiperidin-3-yl)-5-methyl-1,2,4-triazin-3-amine] | 118
COc1ccc(-c2nnc(NC3CCCN(C(C)C)C3)nc2C)c(F)c1 (single isomer, unassigned) [Example 76b, 6-(2-fluoro-4-methoxyphenyl)-N-(1-isopropylpiperidin-3-yl)-5-methyl-1,2,4-triazin-3-amine] | 107
Cc1nc(NC2CCCN(C)C2)ncc1-c1ccc(F)cc1F (single isomer, unassigned) [Example 77a, 5-(2,4-difluorophenyl)-4-methyl-N-(1-methylpiperidin-3-yl)pyrimidin-2-amine] | 70
Cc1nc(NC2CCCN(C)C2)ncc1-c1ccc(F)cc1F (single isomer, unassigned) [Example 77b, 5-(2,4-difluorophenyl)-4-methyl-N-(1-methylpiperidin-3-yl)pyrimidin-2-amine] | 93
CCN1CCC[C@@H](Nc2ncc(-c3ccc(F)cc3F)c(C)n2)C1 (single isomer, unassigned) [Example 78a] | 61
Cc1nc(NCC2COCCN2C)ncc1-c1ccc(F)cc1F (single isomer, unassigned) [Example 79a, 5-(2,4-difluorophenyl)-4-methyl-N-((4-methylmorpholin-3-yl)methyl) pyrimidin-2-amine] | 420
Cc1nc(NCC2COCCN2C)ncc1-c1ccc(F)cc1F (single isomer, unassigned) [Example 79b, 5-(2,4-difluorophenyl)-4-methyl-N-((4-methylmorpholin-3-yl)methyl) pyrimidin-2-amine] | 296
Cc1nc(NCC2NCCC2(F)F)ncc1-c1ccc(F)cc1F (single isomer, unassigned) [Example 83a, 5-(2,4-difluorophenyl)-N-((3,3-difluoropyrrolidin-2-yl)methyl)-4-methyl-pyrimidin-2-amine] | 1150
Cc1nc(NCC2NCCC2(F)F)ncc1-c1ccc(F)cc1F (single isomer, unassigned) [Example 83b, 5-(2,4-difluorophenyl)-N-((3,3-difluoropyrrolidin-2-yl)methyl)-4-methyl-pyrimidin-2-amine] | 456
Cc1nc(NCC2N(C)CCC2(F)F)ncc1-c1ccc(F)cc1F (single isomer, unassigned) [Example 84a, N-((3,3-difluoro-1-methylpyrrolidin-2-yl)methyl)-5-(2,4-difluorophenyl)-4-methyl-pyrimidin-2-amine] | 1530
Cc1nc(NCC2N(C)CCC2(F)F)ncc1-c1ccc(F)cc1F (single isomer, unassigned) [Example 84b, N-((3,3-difluoro-1-methylpyrrolidin-2-yl)methyl)-5-(2,4-difluorophenyl)-4-methyl-pyrimidin-2-amine] | 1650
Cc1nc(NC2CCN3CCCC23)ncc1-c1ccc(F)cc1F (single isomer, unassigned) [Example 86a, N-(5-(2,4-difluorophenyl)-4-methyl-pyrimidin-2-yl)hexahydro-1H-pyrrolizin-1-amine] | 122
Cc1nc(NC2CCN3CCCC23)ncc1-c1ccc(F)cc1F (single isomer, unassigned) [Example 86b, N-(5-(2,4-difluorophenyl)-4-methyl-pyrimidin-2-yl)hexahydro-1H-pyrrolizin-1-amine] | 126
Cc1nc(NCC2C(F)CCN2C)ncc1-c1ccc(F)cc1F (single isomer, unassigned) [Example 96a, 5-(2,4-difluorophenyl)-N-((3-fluoro-1-methylpyrrolidin-2-yl)methyl)-4-methyl-pyrimidin-2-amine] | 151
Cc1nc(NCC2C(F)CCN2C)ncc1-c1ccc(F)cc1F (single isomer, unassigned) [Example 96b, 5-(2,4-difluorophenyl)-N-((3-fluoro-1-methylpyrrolidin-2-yl)methyl)-4-methyl-pyrimidin-2-amine] | 99
Cc1nc(NC2CCN3CCCC23)ncc1-c1ccc(OC(F)(F)F)cc1F (single isomer, unassigned) [Example 97a, N-(5-(2-fluoro-4-(trifluoromethoxy)phenyl)-4-methyl-pyrimidin-2-yl)hexahydro-1H-pyrrolizin-1-amine] | 184
Cc1nc(NC2CCN3CCCC23)ncc1-c1ccc(OC(F)(F)F)cc1F (single isomer, unassigned) [Example 97b, N-(5-(2-fluoro-4-(trifluoromethoxy)phenyl)-4-methyl-pyrimidin-2-yl)hexahydro-1H-pyrrolizin-1-amine] | 152
Cc1nc(NC2CCN3CCCC23)ncc1-c1ccc(OC(F)(F)F)cc1F (single isomer, unassigned) [Example 97c, N-(5-(2-fluoro-4-(trifluoromethoxy)phenyl)-4-methyl-pyrimidin-2-yl)hexahydro-1H-pyrrolizin-1-amine] | 180
Cc1nc(NC2CCN3CCCC23)ncc1-c1ccc(OC(F)(F)F)cc1F (single isomer, unassigned) [Example 97d, N-(5-(2-fluoro-4-(trifluoromethoxy)phenyl)-4-methyl-pyrimidin-2-yl)hexahydro-1H-pyrrolizin-1-amine] | 299
Cc1nc(NC[C@@H]2CN(C)CCO2)ncc1-c1ccc(C(F)(F)F)cc1F (single isomer, unassigned) [Example 108a] | 86
Cc1nc(NC[C@H]2CN(C)CCO2)ncc1-c1ccc(C(F)(F)F)cc1F (single isomer, unassigned) [Example 108b] | 77
Cc1nc(NC(C)[C@H]2CCCN2)ncc1-c1ccc(C(F)(F)F)cc1F (single isomer, unassigned) [Example 129a, 5-(2-fluoro-4-(trifluoromethyl)phenyl)-4-methyl-N-((1*R)-1-((2R)-pyrrolidin-2-yl)ethyl)pyrimidin-2-amine] | 65
Cc1nc(NC(C)[C@H]2CCCN2)ncc1-c1ccc(C(F)(F)F)cc1F (single isomer, unassigned) [Example 129b, 5-(2-fluoro-4-(trifluoromethyl)phenyl)-4-methyl-N-((1*S)-1-((2R)-pyrrolidin-2-yl)ethyl)pyrimidin-2-amine] | 105

— US20240059677A1, “SUBSTITUTED PYRIMIDINE DERIVATIVES AS NICOTINIC ACETYLCHOLINESTERASE RECEPTOR ALPHA 6 MODULATOR” (priority 2020, published 2024)
